# Source: publication PMC7032088 (Asian Journal of Pharmaceutical Sciences, 2017)
# System: A549 cells
# Assay: Cell viability
# Conditions: 24 h, 0.0005–0.1 mg/ml
structure (smiles),measurement,value
"CC(C(=O)O)c1cccc(C(=O)c2ccccc2)c1 (stereo not shown) [Free KTP, Ketoprofen]",in vitro cytotoxicity (MTT),did not show significant cytotoxicity
